ChEMBL document CHEMBL4613209, “Quinolone hybrids and their anti-cancer activities: An overview” (Eur J Med Chem, 2019)
≈ marks a conversion by molar mass, not a printed value.

Key:
A549 [1] = test: Antiproliferative activity against human A549 cells by CCK8 assay; assay type: functional, cell-based
MCF-10A = test: Antiproliferative activity against human MCF10A cells by CCK8 assay; assay type: cell-based
PC-3 = test: Antiproliferative activity against human PC3 cells by CCK8 assay; assay type: functional, cell-based
MCF7 [2] = test: Antiproliferative activity against human MCF7 cells by CCK8 assay; assay type: functional, cell-based
HepG2 = test: Antiproliferative activity against human HepG2 cells by CCK8 assay; assay type: functional, cell-based
Histone deacetylase = test: Inhibition of HDAC (unknown origin); assay type: protein assay, Homo sapiens
HeLa = test: Antiproliferative activity against human HeLa cells by CCK8 assay; assay type: functional, cell-based
Tubulin = test: Inhibition of tubulin polymerization (unknown origin); assay type: protein-complex assay, Homo sapiens
ACHN = test: Cytotoxicity against human ACHN cells assessed as reduction in cell viability after 72 hrs by MTT assay; assay type: functional, cell-based
KB = test: Cytotoxicity against human KB cells assessed as reduction in cell viability after 72 hrs by MTT assay; assay type: functional, cell-based
A2780 = test: Cytotoxicity against human A2780 cells assessed as reduction in cell viability after 72 hrs by MTT assay; assay type: functional, cell-based; conditions: A2780, 72 h
A 172 = test: Cytotoxicity against human A172 cells assessed as reduction in cell viability after 72 hrs by MTT assay; assay type: functional, cell-based; conditions: A 172, 72 h
A549 [3] = test: Cytotoxicity against human A549 cells assessed as reduction in cell viability after 72 hrs by MTT assay; assay type: functional, cell-based; conditions: A549, 72 h
SK-MEL3 = test: Cytotoxicity against human SK-MEL-3 cells assessed as reduction in cell viability after 72 hrs by MTT assay; assay type: functional, cell-based; conditions: SK-MEL3, 72 h
MCF7 [4] = test: Cytotoxicity against human MCF7 cells assessed as reduction in cell viability after 72 hrs by MTT assay; assay type: functional, cell-based; conditions: MCF7, 72 h
NCI-H460 = test: Growth inhibition of human NCI-H460 cells; assay type: functional; conditions: pooled result: one value given for 3 cell lines, strains, targets or settings
B16-F10 [5] = test: Cytotoxicity against mouse B16F10 cells assessed as reduction in cell viability; assay type: functional, cell-based
HT-29 [6] = test: Anticancer activity against human HT-29 cells; assay type: functional, cell-based
A549 [7] = test: Anticancer activity against human A549 cells; assay type: functional, cell-based
P388 [8] = test: Anticancer activity against doxorubicin resistant mouse P388 cells; assay type: functional, cell-based
HT-29 [9] = test: Cytotoxicity against human HT-29 cells assessed as reduction in cell viability; assay type: functional, cell-based
P388 [10] = test: Cytotoxicity against doxorubicin resistant mouse P388 cells assessed as reduction in cell viability; assay type: functional, cell-based
P388 [11] = test: Cytotoxicity against mouse P388 cells assessed as reduction in cell viability; assay type: functional, cell-based
HCT-8 = test: Anticancer activity against human HCT8 cells; assay type: functional, cell-based
MCF7 [12] = test: Anticancer activity against human MCF7 cells; assay type: functional, cell-based
[13] = test system: Lewis lung carcinoma cell line; test: Anticancer activity against mouse LLC cells; assay type: functional, cell-based
B16-F10 [14] = test: Anticancer activity against mouse B16F10 cells; assay type: functional, cell-based
A549 [15] = test: Cytotoxicity against human A549 cells assessed as reduction in cell viability; assay type: functional, cell-based
P388 [16] = test: Anticancer activity against mouse P388 cells; assay type: functional, cell-based

SMILES	IC50 (A549 [1]) [nM]	IC50 (MCF-10A) [nM]	IC50 (PC-3) [nM]	IC50 (MCF7 [2]) [nM]	IC50 (HepG2) [nM]	IC50 (Histone deacetylase) [nM]	IC50 (HeLa) [nM]	IC50 (Tubulin) [nM]	IC50 (B16-F10 [5]) [µg/mL]	IC50 (HT-29 [6]) [nM]	IC50 (A549 [7]) [nM]	IC50 (P388 [8]) [nM]	IC50 (HT-29 [9]) [µg/mL]	IC50 (P388 [10]) [µg/mL]	IC50 (P388 [11]) [µg/mL]	IC50 (HCT-8) [nM]	IC50 (MCF7 [12]) [nM]	IC50 [13] [nM]	IC50 (B16-F10 [14]) [nM]	IC50 (A549 [15]) [µg/mL]	other results
C[C@H]1COc2c(N3CCN(C)CC3)c(F)cc3c(=O)c(C(=O)OCc4cn(CCCCCCCC(=O)NO)nn4)cn1c23	300 to 12800	> 100000	300 to 12800	300 to 12800	300 to 12800	21 to 850	300 to 12800	1790 to 6360	–	–	–	–	–	–	–	–	–	–	–	–	–
CCn1cc(C(=O)O)c(=O)c2cc(F)c(N3CCN(C/C(=N/OCc4ccccc4)c4ccco4)CC3)cc21	–	–	–	–	–	–	–	–	–	–	–	–	–	–	–	–	–	–	–	–	IC50 (ACHN): ≤ 10000 nM; IC50 (KB): ≤ 10000 nM; IC50 (A2780): ≤ 10000 nM; IC50 (A 172): ≤ 10000 nM; IC50 (A549 [3]): ≤ 10000 nM; IC50 (SK-MEL3): ≤ 10000 nM; IC50 (MCF7 [4]): ≤ 10000 nM
O=c1[nH]c2ccccc2c2[nH]cc(-c3ccccc3)c12	–	–	–	–	–	–	–	–	–	–	–	–	–	–	–	–	–	–	–	–	GI50 (NCI-H460): 18200 nM
Cc1ccccc1NC1CCN(C2C(F)=Cc3c4n(cc(C(=O)O)c3=O)-c3ccccc3OC42)C1 (stereo not drawn)	–	–	–	–	–	–	–	–	0.011 to 0.59 (≈ 0.0232 to 1.25 µM)	30 to 490	30 to 490	30 to 490	0.011 to 0.59 (≈ 0.0232 to 1.25 µM)	0.011 to 0.59 (≈ 0.0232 to 1.25 µM)	0.011 to 0.59 (≈ 0.0232 to 1.25 µM)	30 to 490	30 to 490	30 to 490	30 to 490	0.011 to 0.59 (≈ 0.0232 to 1.25 µM)	IC50 (P388 [16]): 30 to 490 nM
CCn1cc(C(=O)O)c(=O)c2cc(F)c(N3CCN(C/C(=N/OCc4ccc(Cl)cc4)c4ccco4)CC3)cc21	–	–	–	–	–	–	–	–	–	–	–	–	–	–	–	–	–	–	–	–	IC50 (ACHN): ≤ 10000 nM; IC50 (KB): ≤ 10000 nM; IC50 (A2780): ≤ 10000 nM; IC50 (A 172): ≤ 10000 nM; IC50 (A549 [3]): ≤ 10000 nM; IC50 (SK-MEL3): ≤ 10000 nM; IC50 (MCF7 [4]): ≤ 10000 nM
C[C@H]1COc2c(N3CCN(C)CC3)c(F)cc3c(=O)c(C(=O)OCc4cn(CCCCCCC(=O)NO)nn4)cn1c23	300 to 12800	> 100000	300 to 12800	300 to 12800	300 to 12800	21 to 850	300 to 12800	1790 to 6360	–	–	–	–	–	–	–	–	–	–	–	–	–
C[C@H]1COc2c(N3CCN(C)CC3)c(F)cc3c(=O)c(C(=O)NCc4cn(CCCCCCCC(=O)NO)nn4)cn1c23	300 to 12800	> 100000	300 to 12800	300 to 12800	300 to 12800	21 to 850	300 to 12800	1790 to 6360	–	–	–	–	–	–	–	–	–	–	–	–	–
CC(C)(C)c1cccc(NC2CCN(C3C(F)=Cc4c5n(cc(C(=O)O)c4=O)-c4ccccc4OC53)C2)c1 (stereo not drawn)	–	–	–	–	–	–	–	–	0.011 to 0.59 (≈ 0.0213 to 1.14 µM)	30 to 490	30 to 490	30 to 490	0.011 to 0.59 (≈ 0.0213 to 1.14 µM)	0.011 to 0.59 (≈ 0.0213 to 1.14 µM)	0.011 to 0.59 (≈ 0.0213 to 1.14 µM)	30 to 490	30 to 490	30 to 490	30 to 490	0.011 to 0.59 (≈ 0.0213 to 1.14 µM)	IC50 (P388 [16]): 30 to 490 nM
COc1ccc(NC2CCN(C3C(F)=Cc4c5n(cc(C(=O)O)c4=O)-c4ccccc4OC53)C2)cc1 (stereo not drawn)	–	–	–	–	–	–	–	–	0.011 to 0.59 (≈ 0.0225 to 1.21 µM)	30 to 490	30 to 490	30 to 490	0.011 to 0.59 (≈ 0.0225 to 1.21 µM)	0.011 to 0.59 (≈ 0.0225 to 1.21 µM)	0.011 to 0.59 (≈ 0.0225 to 1.21 µM)	30 to 490	30 to 490	30 to 490	30 to 490	0.011 to 0.59 (≈ 0.0225 to 1.21 µM)	IC50 (P388 [16]): 30 to 490 nM
